Data from patent publication US7169931B2, “Cyclic compounds exhibiting thrombopoietin receptor agonism” (Shionogi & Co., Ltd., priority 2001, dated 2007).
pEC50: −log10 of the molar value.

Each compound was assayed against T1, human TPO receptor (Homo sapiens, UniProt P40238) (assay: Thrombopoietic activity: proliferation of TPO dependent BaF/hTPOR cells (WST-1)). Details: BaF/hTPOR cell line (BaF-B03 with human TPO receptor), without IL-3; 20 hours incubation + 4 hours WST-1, absorbance 450 nm; ED50 = half concentration of the concentration showing maximum thrombopoietic activity.
T1 construct: expressed in transfected cells; host or cells: BaF-B03 (murine IL-3 dependent cell line)
T1 sequence (P40238 26-635): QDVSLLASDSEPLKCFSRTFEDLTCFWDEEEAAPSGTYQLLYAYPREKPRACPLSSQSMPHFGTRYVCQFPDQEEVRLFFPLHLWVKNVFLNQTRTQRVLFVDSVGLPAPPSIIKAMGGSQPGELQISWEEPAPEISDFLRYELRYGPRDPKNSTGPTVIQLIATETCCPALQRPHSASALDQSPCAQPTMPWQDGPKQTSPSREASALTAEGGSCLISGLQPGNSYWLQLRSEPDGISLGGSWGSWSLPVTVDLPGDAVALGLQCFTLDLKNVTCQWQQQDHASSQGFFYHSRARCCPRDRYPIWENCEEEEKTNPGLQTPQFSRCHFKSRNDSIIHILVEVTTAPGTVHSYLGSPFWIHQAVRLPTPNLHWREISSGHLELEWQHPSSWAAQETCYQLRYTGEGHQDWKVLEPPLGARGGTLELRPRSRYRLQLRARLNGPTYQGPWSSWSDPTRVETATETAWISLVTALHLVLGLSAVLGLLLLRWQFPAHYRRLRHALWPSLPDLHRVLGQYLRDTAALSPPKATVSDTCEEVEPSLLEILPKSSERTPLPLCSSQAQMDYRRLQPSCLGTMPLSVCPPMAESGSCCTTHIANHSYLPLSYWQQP
Assay type: cell-based
Description: BAF/hTPOR cells were maintained in RPMI medium and WEHI-3B conditioned medium as a source of murine interleukin-3 (IL-3). These cells were washed and resuspended in RPMI medium without a source of murine IL-3 and seeded into each well of 96-well microtiter plates at a density of 5×10^4 cells per well in the absence or presence of various concentration of hTPO or the present compound. After incubation at 37° C. for 20 hours in the 5% CO2 incubator, 10% WST-1 reagent (Takara Biomedicals, Japan) was added to each wells and the cells were further incubated for 4 hours. The absorbance at 450 nm was measured.

Row | pEC50 | Structure (SMILES)
1 | 7.40 | O=C(Nc1nc(-c2ccc(Cl)c(Cl)c2)cs1)c1ccc2c(c1)CCC(C(=O)O)C2 (centres unmarked) [Compound A-1]
2 | 6.42 | O=C(O)c1ccc2c(c1)CCC(C(=O)Nc1nc(-c3ccc(Cl)c(Cl)c3)cs1)C2 (centres unmarked) [Compound A-2]
3 | 6.02 | O=C(Nc1nc(-c2ccc(Cl)c(Cl)c2)cs1)c1ccc2c(c1)CC(C(=O)O)CC2 (centres unmarked) [Compound A-3]
4 | 6.83 | O=C(Nc1nc(-c2ccc(Cl)c(Cl)c2)cs1)c1ccc2c(c1)CCC(F)(C(=O)O)C2 (centres unmarked) [Compound A-4]
5 | 6.78 | COC(=O)C1(F)CCc2cc(C(=O)Nc3nc(-c4ccc(Cl)c(Cl)c4)cs3)ccc2C1 (centres unmarked) [Compound A-5]
6 | 6.68 | O=C(Nc1nc(-c2ccc(Cl)c(Cl)c2)cs1)c1ccc2c(c1)C(=O)CC(C(=O)O)C2 (centres unmarked) [Compound A-6]
7 | 6.60 | COC(=O)C1CC(=O)c2cc(C(=O)Nc3nc(-c4ccc(Cl)c(Cl)c4)cs3)ccc2C1 (centres unmarked) [Compound A-7]
8 | 5.64 | COC(=O)[C@@H]1Cc2ccc(C(=O)Nc3nc(-c4ccc(Cl)c(Cl)c4)cs3)cc2[C@H](O)C1 [Compound A-8]
9 | 6.51 | O=C(Nc1nc(-c2ccc(Cl)c(Cl)c2)cs1)c1ccc2c(c1)C(F)CC(C(=O)O)C2 (centres unmarked) [Compound A-9]
10 | 6.26 | COC(=O)C1Cc2ccc(C(=O)Nc3nc(-c4ccc(Cl)c(Cl)c4)cs3)cc2C(=O)C1F (centres unmarked) [Compound A-11]
11 | 6.57 | COC(=O)CC1Cc2ccc(C(=O)Nc3nc(-c4ccc(Cl)c(Cl)c4)cs3)cc2C1=O (centres unmarked) [Compound A-13]
12 | 6.64 | O=C(O)CC1Cc2ccc(C(=O)Nc3nc(-c4ccc(Cl)c(Cl)c4)cs3)cc2C1=O (centres unmarked) [Compound A-14]
13 | 6.62 | COC(=O)CC1Cc2ccc(C(=O)Nc3nc(-c4ccc(Cl)c(Cl)c4)cs3)cc2C1 (centres unmarked) [Compound A-15]
14 | 6.64 | O=C(O)CC1Cc2ccc(C(=O)Nc3nc(-c4ccc(Cl)c(Cl)c4)cs3)cc2C1 (centres unmarked) [Compound A-16]
15 | 7.64 | O=C(O)c1ccc2cc(C(=O)Nc3nc(-c4ccc(Cl)c(Cl)c4)cs3)ccc2c1 [Compound A-17]
16 | 7.37 | COC(=O)c1ccc2cc(C(=O)Nc3nc(-c4ccc(Cl)c(Cl)c4)cs3)ccc2c1 [Compound A-18]
17 | 6.72 | COC(=O)c1ccc2cc(C(=O)Nc3nc(-c4ccc(Cl)c(Cl)c4)cs3)ccc2n1 [Compound A-22]
18 | 7.16 | O=C(Nc1nc(-c2cccc(C(F)(F)F)c2F)cs1)c1ccc2c(c1)CCC(C(=O)O)C2 (centres unmarked) [Compound B-1]
19 | 6.67 | O=C(Nc1nc(-c2ccc3c(c2)CCCC3)cs1)c1ccc2c(c1)CCC(C(=O)O)C2 (centres unmarked) [Compound B-2]
20 | 6.66 | CCCCc1cccc(-c2csc(NC(=O)c3ccc4c(c3)CCC(C(=O)O)C4)n2)c1 (centres unmarked) [Compound B-3]
21 | 6.96 | O=C(Nc1nc(-c2ccc(C(F)(F)F)cc2F)cs1)c1ccc2c(c1)CCC(C(=O)O)C2 (centres unmarked) [Compound B-4]

Row | pEC50 | Structure (SMILES)
22 | 7.25 | CCCCCc1cccc(-c2csc(NC(=O)c3ccc4c(c3)CCC(C(=O)O)C4)n2)c1F (centres unmarked) [Compound B-5]
23 | 7.18 | CCCCCc1cc(-c2csc(NC(=O)c3ccc4c(c3)CCC(C(=O)O)C4)n2)ccc1F (centres unmarked) [Compound B-6]
24 | 6.55 | O=C(Nc1nc(-c2ccc(F)c(F)c2)cs1)c1ccc2c(c1)CCC(C(=O)O)C2 (centres unmarked) [Compound B-7]
25 | 6.92 | O=C(Nc1nc(-c2cccc(C(F)(F)F)c2)cs1)c1ccc2c(c1)CCC(C(=O)O)C2 (centres unmarked) [Compound B-8]
26 | 7.55 | O=C(Nc1nc(-c2cccc(F)c2F)cs1)c1ccc2c(c1)CCC(C(=O)O)C2 (centres unmarked) [Compound B-9]
27 | 7.32 | O=C(Nc1nc(-c2ccc(Cl)c(Cl)c2)c(F)s1)c1ccc2c(c1)CCC(C(=O)O)C2 (centres unmarked) [Compound B-10]
28 | 7.18 | CC(C)c1cccc(-c2csc(NC(=O)c3ccc4c(c3)CCC(C(=O)O)C4)n2)c1F (centres unmarked) [Compound B-11]
29 | 7.13 | O=C(Nc1nc(-c2cccc(C3CCCCC3)c2F)cs1)c1ccc2c(c1)CCC(C(=O)O)C2 (centres unmarked) [Compound B-12]
30 | 6.47 | O=C(Nc1nc(-c2cccc(C3CCOCC3)c2F)cs1)c1ccc2c(c1)CCC(C(=O)O)C2 (centres unmarked) [Compound B-13]
31 | 7.38 | O=C(Nc1nc(-c2cccc(OC(F)(F)F)c2F)cs1)c1ccc2c(c1)CCC(C(=O)O)C2 (centres unmarked) [Compound B-14]
32 | 7.23 | O=C(Nc1nc(-c2cccc(CCc3ccccc3)c2F)cs1)c1ccc2c(c1)CCC(C(=O)O)C2 (centres unmarked) [Compound B-15]
33 | 7.01 | CCCCOc1cccc(-c2csc(NC(=O)c3ccc4c(c3)CCC(C(=O)O)C4)n2)c1F (centres unmarked) [Compound B-16]
34 | 6.84 | Cc1sc(NC(=O)c2ccc3c(c2)CCC(C(=O)O)C3)nc1-c1cccc(C(F)(F)F)c1 (centres unmarked) [Compound B-17]
35 | 7.14 | O=C(Nc1nc(-c2cccc(C3CCCC3)c2F)cs1)c1ccc2c(c1)CCC(C(=O)O)C2 (centres unmarked) [Compound B-18]
36 | 7.32 | CC(C)Cc1cccc(-c2csc(NC(=O)c3ccc4c(c3)CCC(C(=O)O)C4)n2)c1F (centres unmarked) [Compound B-19]
37 | 7.17 | CCCc1cccc(-c2csc(NC(=O)c3ccc4c(c3)CCC(C(=O)O)C4)n2)c1F (centres unmarked) [Compound B-20]
38 | 7.22 | CCCCc1cccc(-c2csc(NC(=O)c3ccc4c(c3)CCC(C(=O)O)C4)n2)c1F (centres unmarked) [Compound B-21]
39 | 7.19 | COC(c1cccc(-c2csc(NC(=O)c3ccc4c(c3)CCC(C(=O)O)C4)n2)c1F)C(C)C (centres unmarked) [Compound B-22]
40 | 7.35 | COC(c1cccc(-c2csc(NC(=O)c3ccc4c(c3)CCC(C(=O)O)C4)n2)c1F)C1CCCCC1 (centres unmarked) [Compound B-23]
41 | 7.28 | O=C(Nc1nc(-c2cccc(C(F)(F)F)c2)c(F)s1)c1ccc2c(c1)CCC(C(=O)O)C2 (centres unmarked) [Compound B-24]
42 | 7.42 | CCOC(c1cccc(-c2csc(NC(=O)c3ccc4c(c3)CCC(C(=O)O)C4)n2)c1F)C(C)C (centres unmarked) [Compound B-25]

Row | pEC50 | Structure (SMILES)
43 | 7.60 | CCCCCCCc1cccc(-c2csc(NC(=O)c3ccc4c(c3)CCC(C(=O)O)C4)n2)c1F (centres unmarked) [Compound B-26]
44 | 7.62 | CCCCCCCCc1cccc(-c2csc(NC(=O)c3ccc4c(c3)CCC(C(=O)O)C4)n2)c1F (centres unmarked) [Compound B-27]
45 | 7.64 | CCCCCCCCCCc1cccc(-c2csc(NC(=O)c3ccc4c(c3)CCC(C(=O)O)C4)n2)c1F (centres unmarked) [Compound B-28]
46 | 7.31 | CCCc1c(Br)ccc(-c2csc(NC(=O)c3ccc4c(c3)CCC(C(=O)O)C4)n2)c1F (centres unmarked) [Compound B-29]
47 | 6.85 | CCOCCc1cccc(-c2csc(NC(=O)c3ccc4c(c3)CCC(C(=O)O)C4)n2)c1F (centres unmarked) [Compound B-30]
48 | 6.98 | O=C(Nc1nc(-c2cccc(Cc3ccccc3)c2F)cs1)c1ccc2c(c1)CCC(C(=O)O)C2 (centres unmarked) [Compound B-31]
49 | 7.02 | CCOC(C)(C)c1cccc(-c2csc(NC(=O)c3ccc4c(c3)CCC(C(=O)O)C4)n2)c1F (centres unmarked) [Compound B-32]
50 | 7.15 | O=C(Nc1nc(-c2ccc(Cl)c(Cl)c2)cs1)c1ccc2cc(C(=O)O)sc2c1 [Compound C-2]
51 | 6.00 | O=C(Nc1nc(-c2ccc(Cl)c(Cl)c2)cs1)c1ccc2oc(C(=O)O)cc2c1 [Compound C-3]
52 | 6.25 | O=C(Nc1nc(-c2ccc(Cl)c(Cl)c2)cs1)c1ccc2cc(C(=O)O)oc2c1 [Compound C-4]
53 | 6.06 | Cc1c(C(=O)O)oc2ccc(C(=O)Nc3nc(-c4ccc(Cl)c(Cl)c4)cs3)cc12 [Compound C-5]
54 | 7.68 | O=C(Nc1nc(-c2cccc(C(F)(F)F)c2F)cs1)c1ccc2sc(C(=O)O)cc2c1 [Compound D-1]
55 | 7.72 | O=C(O)c1ccc2cc(C(=O)Nc3nc(-c4cccc(C(F)(F)F)c4F)cs3)ccc2c1 [Compound D-2]
56 | 6.43 | O=C(Nc1nc(-c2cccc(C(F)(F)F)c2F)cs1)c1ccc2c(c1)CC(C(=O)O)C2 [Compound D-3]
57 | 6.60 | CCOC(=O)C1=Cc2ccc(C(=O)Nc3nc(-c4cccc(C(F)(F)F)c4F)cs3)cc2C1 [Compound D-4]
58 | 6.68 | O=C(O)C1=Cc2ccc(C(=O)Nc3nc(-c4cccc(C(F)(F)F)c4F)cs3)cc2C1 [Compound D-5]
59 | 5.60 | CCOC(=O)C1Cc2cc(C(=O)Nc3nc(-c4cccc(C(F)(F)F)c4F)cs3)ccc2C1=O [Compound D-6]
60 | 7.35 | O=C(O)C1=Cc2ccc(C(=O)Nc3nc(-c4cccc(C(F)(F)F)c4F)cs3)cc2CC1 [Compound D-7]
61 | 5.71 | COC(=O)c1cc2ccc(C(=O)Nc3nc(-c4cccc(C(F)(F)F)c4F)cs3)cc2oc1=O [Compound D-8]
62 | 4.78 | O=C(O)c1ccc2sc(C(=O)Nc3nc(-c4ccc(Cl)c(Cl)c4)cs3)cc2c1 [Compound E-1]
